Test results as given in PMC8206213, “An L-2-hydroxyglutarate biosensor based on specific transcriptional regulator LhgR” (Nature Communications, 2021).
Several values for one entry are separate records, joined by “and”; a condition that tells them apart may be missing. Equal entries are not always repeated. Entries after “also recorded” stand apart in the source; their conditions may differ.

Tests used:
LHGFR0N7C = assay: Influence of other compounds on the response of purified LHGFR0N7C to L-2-HG; assay type: binding, Pseudomonas putida W619
Outline: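 Purified L-2-HG biosensors were mixed 3:1 with test compounds in 50 mM Tris-HCl pH 7.4, excited at 430 nm, and the 528 nm (Venus)/485 nm (mTFP) emission was read. Responses were fitted with a Hill model giving apparent Kd and Hill slope.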

LhgO = assay: Enzymatic assay of LhgO in crude extracts of P. putida KT2440 derivatives grown on different carbon sources (induction of lhgO under LhgR control); assay type: cell-based, Pseudomonas putida
Procedure: The cells were harvested at mid-log phase, washed twice and resuspended in phosphate-buffered saline (PBS), then lysed by sonication on ice after the addition of 1 mM phenylmethylsulfonyl fluoride (PMSF). […] Protein concentrations of the supernatants were determined using the Bradford protein assay kit (Sangon, China). […] The 800 μL reaction solution contained 0.1 mM […], 0.05 mM DCPIP, 0.2 mM phenazine methosulfate (PMS) in PBS and 40 μL crude extracts.

LhgR = assay: EMSA, effect of compounds on LhgR binding to the lhgO promoter region F1; parameters: species or system Pseudomonas putida W619; conditions: 50 mM compound, 10 nM F1, 60 nM LhgR
Outline: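 Purified LhgR was preincubated 15 min at 30 °C with candidate effectors (L-lysine, 5-aminovalerate, glutarate, L-2-HG, D-2-HG, 2-KG, succinate), then 30 min at 30 °C with 10 nM F1 or F2 DNA. Buffer: 10 mM Tris-HCl pH 7.4, 50 mM KCl, 10% glycerol, 1 mM DTT. Shift seen on 6% native PAGE with SYBR green I.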

LHGFR0N3C = assay: Specificity of purified LHGFR0N3C, emission ratio with 240 μM compounds; assay type: binding, Pseudomonas putida W619; conditions: 240 μM compound
[1] = system: LHGFR0N7C expressed in HEK293FT cells; assay: Specificity of LHGFR0N7C expressed in permeabilized HEK293FT cells, 1 mM compounds; assay type: cell-based, human (HEK293FT cells); conditions: Supplementary Fig. 17d; Control about 1
Procedure: To characterize the sensitivity and specificity of LHGFR expressed in HEK293FT cells, cells were trypsinized 48 h following transfection and suspended in 1× Hank’s balanced salt solution supplemented with 20 mM HEPES. […] Digitonin at a concentration of 10 μM was used to induce cell permeabilization and deplete intracellular L-2-HG for in vivo response curves construction. Then, the fluorescence intensities were determined by a SpectraMax i3 fluorescence plate reader (Molecular Devices, USA) with excitation at 430 nm and emission at 485 nm (mTFP) and 528 nm (Venus). Basal L-2-HG concentration in HEK293FT cells under physiological conditions was determined by substituting the emission ratios of non-permeabilized HEK293FT cells into the calibrated in vivo response curves.

With `O=C(O)CC[C@H](O)C(=O)O` [L-2-HG, L-2-Hydroxyglutarate] the “Emission ratio of 528/485” value (LHGFR0N7C; L-2-HG concentration 0.01, in the absence of D-2-HG, Suppl. Fig. 9f) was 1.668 and 1.665 and 1.6772, the “Emission ratio of 528/485” value (LHGFR0N7C; L-2-HG concentration 0.01, in the presence of 2-KG, Suppl. Fig. 9h) was 1.723 and the “Emission ratio of 528/485” value (LHGFR0N7C; L-2-HG concentration 0.01, in the presence of D-2-HG, Suppl. Fig. 9f) was 1.965 and 1.961 and 1.978. The “Emission ratio of 528/485” value (LHGFR0N7C; L-2-HG concentration 0.1, in the absence of D-2-HG, Suppl. Fig. 9f) was 1.677 and 1.673 and 1.693, the “Emission ratio of 528/485” value (LHGFR0N7C; L-2-HG concentration 0.1, in the presence of D-2-HG, Suppl. Fig. 9f) was 1.971 and 1.964 and 1.956 and the “Emission ratio of 528/485” value (LHGFR0N7C; L-2-HG concentration 0.2, in the absence of D-2-HG, Suppl. Fig. 9f) was 1.691 and 1.69 and 1.731. The “Emission ratio of 528/485” value (LHGFR0N7C; L-2-HG concentration 0.2, in the presence of D-2-HG, Suppl. Fig. 9f) was 1.971 and 1.94 and 1.9794, the “Emission ratio of 528/485” value (LHGFR0N7C; L-2-HG concentration 1, in the absence of D-2-HG, Suppl. Fig. 9f) was 1.801 and 1.777 and 1.826 and the “Emission ratio of 528/485” value (LHGFR0N7C; L-2-HG concentration 1, in the presence of D-2-HG, Suppl. Fig. 9f) was 2.027 and 1.982 and 2.045. For the same molecule, the “Emission ratio of 528/485” value (LHGFR0N7C; L-2-HG concentration 2, in the absence of D-2-HG, Suppl. Fig. 9f) was 1.915 and 1.897 and 1.932, the “Emission ratio of 528/485” value (LHGFR0N7C; L-2-HG concentration 2, in the presence of D-2-HG, Suppl. Fig. 9f) was 2.096 and 2.057 and 2.13 and the “Emission ratio of 528/485” value (LHGFR0N7C; L-2-HG concentration 10, in the absence of D-2-HG, Suppl. Fig. 9f) was 2.29 and 2.251 and 2.3138. For the same molecule, the “Emission ratio of 528/485” value (LHGFR0N7C; L-2-HG concentration 10, in the presence of D-2-HG, Suppl. Fig. 9f) was 2.341 and 2.308 and 2.373, the “Emission ratio of 528/485” value (LHGFR0N7C; L-2-HG concentration 20, in the absence of 2-KG, Suppl. Fig. 9h) was 2.356 (2×) and 2.408 and the “Emission ratio of 528/485” value (LHGFR0N7C; L-2-HG concentration 20, in the absence of D-2-HG, Suppl. Fig. 9f) was 2.392 and 2.365 and 2.398. The “Emission ratio of 528/485” value (LHGFR0N7C; L-2-HG concentration 20, in the presence of 2-KG, Suppl. Fig. 9h) was 2.43 and 2.42 and 2.428, the “Emission ratio of 528/485” value (LHGFR0N7C; L-2-HG concentration 20, in the presence of D-2-HG, Suppl. Fig. 9f) was 2.458 and 2.457 and 2.465 and the “Emission ratio of 528/485” value (LHGFR0N7C; L-2-HG concentration 100, in the absence of 2-KG, Suppl. Fig. 9h) was 2.538 and 2.5321 and 2.598. For the same molecule, the “Emission ratio of 528/485” value (LHGFR0N7C; L-2-HG concentration 100, in the absence of D-2-HG, Suppl. Fig. 9f) was 2.581 and 2.561 and 2.566, the “Emission ratio of 528/485” value (LHGFR0N7C; L-2-HG concentration 100, in the presence of 2-KG, Suppl. Fig. 9h) was 2.5747 and 2.606 and 2.576 and the “Emission ratio of 528/485” value (LHGFR0N7C; L-2-HG concentration 100, in the presence of D-2-HG, Suppl. Fig. 9f) was 2.5851 and 2.631 and 2.587. The “Emission ratio of 528/485” value (LHGFR0N7C; L-2-HG concentration 200, in the absence of 2-KG, Suppl. Fig. 9h) was 2.539 and 2.563 and 2.555, the “Emission ratio of 528/485” value (LHGFR0N7C; L-2-HG concentration 200, in the absence of D-2-HG, Suppl. Fig. 9f) was 2.5575 and 2.555 and 2.59 and the “Emission ratio of 528/485” value (LHGFR0N7C; L-2-HG concentration 200, in the presence of 2-KG, Suppl. Fig. 9h) was 2.617 and 2.618 and 2.612. For the same molecule, the “Emission ratio of 528/485” value (LHGFR0N7C; L-2-HG concentration 200, in the presence of D-2-HG, Suppl. Fig. 9f) was 2.597 and 2.613 and 2.641, the “Emission ratio of 528/485” value (LHGFR0N7C; L-2-HG concentration 1000, in the absence of 2-KG, Suppl. Fig. 9h) was 2.624 and 2.621 and 2.641 and the “Emission ratio of 528/485” value (LHGFR0N7C; L-2-HG concentration 1000, in the absence of D-2-HG, Suppl. Fig. 9f) was 2.621 and 2.615 and 2.63. The “Emission ratio of 528/485” value (LHGFR0N7C; L-2-HG concentration 1000, in the presence of 2-KG, Suppl. Fig. 9h) was 2.674 and 2.614 and 2.6567, the “Emission ratio of 528/485” value (LHGFR0N7C; L-2-HG concentration 1000, in the presence of D-2-HG, Suppl. Fig. 9f) was 2.625 and 2.6112 and 2.6354 and the “Emission ratio of 528/485” value (LHGFR0N7C; L-2-HG concentration 2000, in the absence of 2-KG, Suppl. Fig. 9h) was 2.674 and 2.655 and 2.638. The “Emission ratio of 528/485” value (LHGFR0N7C; L-2-HG concentration 2000, in the absence of D-2-HG, Suppl. Fig. 9f) was 2.642 and 2.658 and 2.618, the “Emission ratio of 528/485” value (LHGFR0N7C; L-2-HG concentration 2000, in the presence of 2-KG, Suppl. Fig. 9h) was 2.683 and 2.662 and 2.678 and the “Emission ratio of 528/485” value (LHGFR0N7C; L-2-HG concentration 2000, in the presence of D-2-HG, Suppl. Fig. 9f) was 2.621 and 2.633 and 2.649. For the same molecule, the Emission ratio (LHGFR0N7C; Suppl. Fig. 9b, L-2-HG alone or with the compound, three replicates) was 2.613 and 2.611 and 2.604, the LhgO activity (LhgO; crude extract of DcsiRDcsiDDlhgO-pME6032-F2-lhgR-F1-lhgO grown with the compound as sole carbon source) was 0.02147 and 0.02016 and 0.02474 and the LhgO activity (LhgO; crude extract of DcsiRDcsiDDlhgO-pME6032 grown with the compound as sole carbon source) was 0.00119 and 0.00104 and 0.00167. The LhgO activity (LhgO; crude extract of DcsiRDlhgO-pME6032-F2-lhgR-F1-lhgO grown with the compound as sole carbon source) was 0.02241 and 0.0245 and 0.02829, the “Induction of lhgO expression / effector molecule of LhgR” value (LhgO; gene segment F2-lhgR-F1-lhgO in P. putida KT2440 derivatives) was “can induce the expression of lhgO” and the “Effect on LhgR binding to the lhgO promoter region F1” value (LhgR) was “prevents LhgR binding to the lhgO promoter region; also recorded: release of LhgR from fragments F1 was observed only in the presence of L-2-HG”. For the same molecule, the Emission ratio (LHGFR0N3C) was 2.0582 and 2.052 and 2.059 and the Normalized emission ratio [1] was 1.4262 and 1.43 and 1.452.
